Data published in US4272517A, “Permanent waving compositions” (Kanegafuchi Kagaku Kogyo Kabushiki Kaisha, priority 1978, dated 1981).

Key:
[1] = assay type: physicochemical
Procedure: Eleven kinds of test solutions were prepared with use of L-cysteine and N-carbamoylcysteine in varying ratios as shown in Table 3 to test the solutions for storage stability. Basically these solutions have the following composition.
Each of the solutions was prepared by adding monoethanolamine (about 3 ml), L-cysteine, N-carbamoyl-L-cysteine and tetrasodium ethylenediaminetetraacetate to about 80 ml of purified water in the order mentioned with stirring, and adjusting the resulting solution to 100 ml with its pH adjusted to 9.1 with monoethanolamine. […] Test Solution A is a reference example.
The test solutions were prepared on the same day, placed into 200-ml colorless wide-mouthed reagent bottles respectively and allowed to stand at room temperature (20° to 26° C.) for 60 days with the mouths of the bottles left open. Consequently white powder of cystine separated out on the 9th day from Test Solution A containing L-cysteine alone, whereas Test Solutions B and C further containing N-carbamoyl-L-cysteine yielded white powder on the 15th day and 32nd day respectively. No powdery deposition was found in Test Solutions D to K even after the lapse of 60 days. […]

Solubility = assay type: physicochemical; details: at a pH of below 8.7
[2] = Acute oral toxicity (LD50) determined on mice; assay type: in vivo; details: mouse, in vivo, oral administration
Text: (§1) The N-carbamoylcysteine to be used in this invention is preferably N-carbamoyl-L-cysteine or N-carbamoyl-DL-cysteine from the viewpoint of practical usefulness but can be N-carbamoyl-D-cysteine. N-carbamoyl-L-cysteine can be prepared easily, for example, by reacting L-cysteine with potassium cyanate. Since it is possible to synthesize N-carbamoyl-DL-cysteine from an inexpensive industrial material, the compound can presumably be prepared more economically than N-carbamoyl-L-cysteine.

mice = test: Acute oral toxicity (LD50) determined on mice; assay type: in vivo; details: oral administration
Text: as §1

[3] = background statement; cited from earlier work

**Q.** Which “stabilizing effect on cysteine (in words)” value [1] does the source give for `CC(=O)N[C@@H](CS)C(=O)O` [N-acetylcysteine, N-acetyl-L-cysteine, reference compound] here?
**A.** adds to the stability of cysteine

**Q.** For `NC(=O)N[C@@H](CS)C(=O)O` [N-carbamoylcysteine], which “solubility (in words)” value (Solubility) is on record?
**A.** not easily soluble

**Q.** What about the “stabilizing effect on cysteine (in words)” value [1] of the same compound?
**A.** exceedingly superior

**Q.** With `NC(=O)N[C@@H](CS)C(=O)O` [N-carbamoyl-L-cysteine] as the compound, how does the LD50 [2] read?
**A.** 13500 mg/kg

**Q.** What about the “toxicity (in words)” value (mice) of the same compound?
**A.** extremely low in toxicity

**Q.** For `NC(=O)NC(CS)C(=O)O` (racemic) [N-carbamoyl-DL-cysteine], which LD50 [2] is on record?
**A.** 13100 mg/kg

**Q.** What about the “toxicity (in words)” value (mice) of the same compound?
**A.** extremely low in toxicity

**Q.** For `N[C@@H](CSSC[C@H](N)C(=O)O)C(=O)O` [cystine], which “solubility in water (in words)” value [3] is on record?
**A.** hardly soluble in water
